Data: patent US6492329B1, “Cytokine and hemopoietic factor endogenous production enhancer and methods of use thereof” (Novelos Therapeutics, Inc., priority 1995, dated 2002)

Legend:
[1] = test system: normal human lymphocytes; assay: Proliferation/apoptosis of normal human lymphocytes (cell number per well, flow cytofluorometry); type: cell-based
[2] = test system: rat embrional fibroblasts (REF); assay: Number of REF cells throughout 72-hr incubation; type: cell-based
Description: (§1) To this end, these substances had been incubated for 72 hours with cells of rat embrional fibroblasts (REF) and the same cells, transformed with adenoviral E1A gene in complementation with ras-oncogene (e-ras cell line). Subsequent evaluation of the cellularity of experimental samples was carried out by counting the quantity of cell per milliliter (for REF cell line) or clones in dish (for e-ras cell line).
(§2) Cells were cultivated on DMEM medium supplemented with 10% fetal calf serum and […] gentamicin. Cultivation was carried out in Petri dishes.
(§3) REF cells was cultivated with initial density of 800 000 cell per mL, evaluation of the cellularity was performed at 0, 24, 48 and 72 hours of incubation with the test articles.
(§4) For the test-system for estimation of apoptosis regulation UV-induced cell death was triggered in a dose of 4 Dj. Test articles were added immediately after irradiation. Then, the quantity of cell per milliliter (for REF cell line) or clones in dish (for e-ras cell line) were monitored every 24 hours. For determination of DNA-fragmentation the electrophoresis in agarose gel was used at standard settings.

[3] = test system: e-ras cell line (REF transformed with E1A and ras-oncogene); assay: Number of clones of e-ras cells throughout 72-hr incubation; type: cell-based, rat
Description: as §1, §2
(§5) E-ras cells were seeded at a cell density of 300 cells per 5 cm dish. 7 days after growth of e-ras cells had been started the quantity of clones was evaluated and the test articles were added into the dishes.
as §4

[4] = test system: rat embrional fibroblasts (REF) after UV-irradiation; assay: Number of REF cells after UV-irradiation; type: cell-based
Description: as §1, §2, §3, §4

[5] = test system: e-ras cells after UV-irradiation; assay: Number of clones of e-ras cells after UV-irradiation; type: cell-based, rat
Description: as §1, §2, §5, §4

[6] = test system: leukemia P388 cells; assay: Leukemia P388 in mice: ascitic fluid and survival (Example 14); conditions: for Accumulation of ascitic (weight gain, %): leukemia P388
Description: (§6) An influence of 7 day course of test article daily administration was studied in respect of tumor progression, which was estimated using the two integral indices: pace of mouse weight gain due to accumulation of ascitic fluid, and by animal mean survival time after inoculation.
(§7) The study was carried out on DBA/2 mice weighing 18-21 g. First, tumor cell passage was performed using 6 animals for each cell line. For this, cells kept at the temperature of the liquid nitrogen were de-frozen and adjusted to the concentration of 5×10^6 cells/mL by sterile Hanks' solution. Then, 6 mice were intra peritoneally inoculated with 0.2 mL of each line cellular suspension.
(§8) Ascitic fluid was collected 6 days after the inoculation with L1210 cells, 8 days after the inoculation with P388 ones and 18 days after inoculation with Erlich adenocarcinoma cells. Thus obtained, the samples of passaged tumor cells were used for the main experiments. The fluid liquid was dissolved by sterile Hanks' solution so that cell concentration be 5×10^6 cells/mL for P388 cells and Erlich adenocarcinoma cells, 5×10^5 cells/mL for L1210 cells.
(§9) Eleven groups of animals with no less than 15 mice each were formed for experiments with either tumor cell line. Mice were inoculated with 0.2 mL of resultant cell suspensions per mouse (10^6 P388 and Erlich adenocarcinoma cells/mouse, and 10^5 L1210 cells/mouse). 24 hours after the tumor cells inoculation, animals were given the first injections of the test articles or vehicles. The test article injections were made daily till the 14th day of the experiment or till the animal death. The volume of solutions injected comprised 0.01 mL/g body weight.
(§10) #1—intact animals receiving imitation of tumor cell inoculation (injection of normal saline) which further were treated with normal saline throughout the entire experiment;
(§11) #2—control animals, inoculated with tumor cells, which further were treated with test article vehicle (normal saline);

[7] = test system: leukemia L1210 cells; assay: Leukemia L1210 in mice: ascitic fluid and survival (Example 14); conditions: for Accumulation of ascitic (weight gain, %): leukemia L1210
Description: as §6, §7, §8, §9, §10, §11

[8] = test system: Erlich adenocarcinoma cells; assay: Erlich adenocarcinoma in mice: ascitic fluid and survival (Example 14); conditions: for Accumulation of ascitic (weight gain, %): Erlich adenocarcinoma
Description: as §6, §7, §8, §9, §10, §11

[9] = test system: leukemia P388 cells; assay: Leukemia P388 in mice: serum cytokines, ascitic fluid, survival (Example 5); conditions: for Accumulation of ascitic fluid (weight gain) / Concentration in serum: IFNα / Concentration in serum: IL-1 / Concentration in serum: IL-2 / Concentration in serum: IL-6 / Concentration in serum: TNFα: P388 mice
Description: (§12) An influence of 7 day course of test article daily administration was studied in respect of variations of serum cytokine levels (IL-1, IL-2, IL-6, IFNα, TNF). In parallel, the tumor progression was estimated using the two integral indices: pace of mouse weight gain due to accumulation of ascitic fluid, and by animal mean survival time after inoculation.
(§13) The study was carried out on DBA/2 mice weighing 18-21 g. First, tumor cell passage was performed using 6 animals for each cell line. For this, cells kept at the temperature of the liquid nitrogen were de-frozen and adjusted to the concentration of 5×10^6 cells/mL by sterile Hanks' solution. Then, 6 mice were intraperitoneally inoculated with 0.2 mL of each line cellular suspension.
(§14) Ascitic fluid was collected 6 days after the inoculation with L1210 cells and 8 days after the inoculation with P388 ones. Thus obtained, the samples of passaged tumor cells were used for the main experiments. The fluid liquid was dissolved by sterile Hanks' solution so that cell concentration be 5×10^6 cells/mL for P388 cells and 5×10^5 cells/mL for L1210 cells.
(§15) Nine groups of animals with no less than 15 mice each were formed for experiments with either tumor cell line. Mice were inoculated with 0.2 mL of resultant cell suspensions per mouse (10^6 P388 cells/mouse, and 10^5 L1210 cells/mouse). 24 hours after the tumor cells inoculation. animals were given the first injections of the test articles or vehicles. The test article injections were made daily till the 14th day of the experiment or until the animal's death. The volume of solutions injected comprised 0.01 mL/g body weight.
as §10, §11

[10] = test system: leukemia L1210 cells; assay: Leukemia L1210 in mice: serum cytokines, ascitic fluid, survival (Example 5); conditions: for Accumulation of ascitic fluid (weight gain) / Concentration in serum: IFNα / Concentration in serum: IL-1 / Concentration in serum: IL-2 / Concentration in serum: IL-6 / Concentration in serum: TNFα: L1210 mice
Description: as §12, §13, §14, §15, §10, §11

[11] = test system: HL-60 cells; assay: Proliferation/apoptosis of HL-60 tumor cells (cell number per well, flow cytofluorometry)
Description: Subsequent evaluation of the cell cycle parameters was carried out by the flow cytofluorometry technique.
A mononuclear fraction of blood leukocytes were obtained by centrifugation in gradient of fikoll-metrizoat (Histopaque, Sigma). […] Cell viability was estimated by the Trypan blue exclusion method, then the cell suspension was placed into wells of 96-well microtiter plates—200,000 cells per well. […] Cultivation was carried out in closed flasks, the medium volume was 12 mL, it was changed every four days by centrifugation. The nature of the cells growth was suspensive. […] 50 μL of each test solution were added to one or the other cell culture and thereafter cells were cultivated for 24-96 hours. Then, they were tested by the flow cytofluorometry to estimate DNA content in the cell nuclei. In case of apoptosis-like cellular death, the portion of cell nuclei with normal content of DNA became reduced, while the portion of cell nuclei containing abnormally small DNA quantity became larger.
The analysis procedure was the following: after incubation completion, cells were centrifuged and transferred to a standard phosphate isotonic buffer pH 7.4, containing RNA-ase A (20 μg/mL), ethidium bromide (fluorometric indicator for double stranded nucleic acid. 10 μg/mL) and MgCl2 (5 mM). After the cells were disintegrated by nonionic detergent Triton X-100 (final concentration 0.1%). The suspension of cell nuclei thus obtained was analyzed by flow cytofluorometry with an argon laser as a source of light (wave length 488 nm). The red fluorescence due to DNA bound ethidium bromide was taken to be the measure of DNA content in the cell nuclei.

Structure (SMILES): O=c1[nH]cnc2c1ncn2[C@@H]1O[C@H](CO)[C@@H](O)[C@H]1O [0.1% inosine, hypoxanthine-9-D-ribofuranoside]
- number of normal lymphocytes per well ([1]; 24 hours incubation): 26 ± 4 × 10^4 cells
- number of normal lymphocytes per well ([1]; 48 hours incubation): 78 ± 7 × 10^4 cells
- number of normal lymphocytes per well ([1]; 72 hours incubation): 141 ± 12 × 10^4 cells
- number of normal lymphocytes per well ([1]; 96 hours incubation): 216 ± 16 × 10^4 cells
- number of REF cells (M ± m) ([2]; 0 hours of incubation): 811 ± 10 × 10^3 cells
- number of REF cells (M ± m) ([2]; 24 hours of incubation): 1426 ± 24 × 10^3 cells
- number of REF cells (M ± m) ([2]; 48 hours of incubation): 2642 ± 25 × 10^3 cells
- number of REF cells (M ± m) ([2]; 72 hours of incubation): 5034 ± 128 × 10^3 cells
- number of clones of e-ras cells (M ± m) ([3]; 0 hours of incubation): 292 ± 11
- number of clones of e-ras cells (M ± m) ([3]; 24 hours of incubation): 290 ± 8
- number of clones of e-ras cells (M ± m) ([3]; 48 hours of incubation): 269 ± 8
- number of clones of e-ras cells (M ± m) ([3]; 72 hours of incubation): 243 ± 8
- number of REF cells after UV-irradiation (M ± m) ([4]; 0 hours): 811 ± 10 × 10^3 cells
- number of REF cells after UV-irradiation (M ± m) ([4]; 24 hours): 426 ± 24 × 10^3 cells
- number of REF cells after UV-irradiation (M ± m) ([4]; 48 hours): 262 ± 22 × 10^3 cells
- number of REF cells after UV-irradiation (M ± m) ([4]; 72 hours): 234 ± 28 × 10^3 cells
- number of clones of e-ras cells after UV-irradiation (M ± m) ([5]; 0 hours): 292 ± 11
- number of clones of e-ras cells after UV-irradiation (M ± m) ([5]; 24 hours): 190 ± 8
- number of clones of e-ras cells after UV-irradiation (M ± m) ([5]; 48 hours): 129 ± 8
- number of clones of e-ras cells after UV-irradiation (M ± m) ([5]; 72 hours): 93 ± 8
- Accumulation of ascitic (weight gain, %) ([6]; number of injection 0): 0.5 ± 0.2%
- Accumulation of ascitic (weight gain, %) ([6]; number of injection 3): 3.9 ± 0.4%
- Accumulation of ascitic (weight gain, %) ([6]; number of injection 7): 16.6 ± 2.6%
- Mean survival time ([6]; mice inoculated with leukemia P388 cells): 21.8 ± 0.6
- Accumulation of ascitic (weight gain, %) ([7]; number of injection 0): 0.56 ± 0.2%
- Accumulation of ascitic (weight gain, %) ([7]; number of injection 3): 7.9 ± 0.4%
- Accumulation of ascitic (weight gain, %) ([7]; number of injection 7): 26.6 ± 2.4%
- Mean survival time ([7]; mice inoculated with leukemia L1210 cells): 9.8 ± 0.6
- Accumulation of ascitic (weight gain, %) ([8]; number of injection 0): 0.8 ± 0.2%
- Accumulation of ascitic (weight gain, %) ([8]; number of injection 3): 11.9 ± 0.2%
- Accumulation of ascitic (weight gain, %) ([8]; number of injection 7): 26.8 ± 2.1%
- Mean survival time ([8]; mice inoculated with Erlich adenocarcinoma cells): 10.1 ± 0.6
- Accumulation of ascitic fluid (weight gain) ([9]; 0 injections): 0.58 ± 0.13%
- Concentration in serum: IFNα ([9]; 0 injections): 81.4 ± 6.13 pg/mL
- Concentration in serum: IL-1 ([9]; 0 injections): 36.7 ± 5.12 pg/mL
- Concentration in serum: IL-2 ([9]; 0 injections): 16.50 ± 1.09 pg/mL
- Concentration in serum: IL-6 ([9]; 0 injections): 115.0 ± 12.5 pg/mL
- Concentration in serum: TNFα ([9]; 0 injections): 122.0 ± 10.0 pg/mL
- Accumulation of ascitic fluid (weight gain) ([9]; 3 daily injections): 6.8 ± 0.8%
- Concentration in serum: IFNα ([9]; 3 daily injections): 105. ± 11.3 pg/mL
- Concentration in serum: IL-1 ([9]; 3 daily injections): 48.2 ± 7.13 pg/mL
- Concentration in serum: IL-2 ([9]; 3 daily injections): 20.19 ± 1.54 pg/mL
- Concentration in serum: IL-6 ([9]; 3 daily injections): 90.0 ± 7.11 pg/mL
- Concentration in serum: TNFα ([9]; 3 daily injections): 96.5 ± 8.7 pg/mL
- Accumulation of ascitic fluid (weight gain) ([9]; 7 daily injections): 25.0 ± 2.22%
- Concentration in serum: IFNα ([9]; 7 daily injections): 184. ± 16.1 pg/mL
- Concentration in serum: IL-1 ([9]; 7 daily injections): 31.0 ± 5.12 pg/mL
- Concentration in serum: IL-2 ([9]; 7 daily injections): 13.40 ± 1.68 pg/mL
- Concentration in serum: IL-6 ([9]; 7 daily injections): 129.0 ± 10.4 pg/mL
- Concentration in serum: TNFα ([9]; 7 daily injections): 144.8 ± 12.9 pg/mL
- Mean survival time ([9]; mice inoculated with leukemia P388 cells, daily injections till day 14 or death): 9.8 ± 0.21
- Accumulation of ascitic fluid (weight gain) ([10]; 0 injections): 0.61%
- Concentration in serum: IFNα ([10]; 0 injections): 117.3 pg/mL
- Concentration in serum: IL-1 ([10]; 0 injections): 41.0 pg/mL
- Concentration in serum: IL-2 ([10]; 0 injections): 17.80 pg/mL
- Concentration in serum: IL-6 ([10]; 0 injections): 108. pg/mL
- Concentration in serum: TNFα ([10]; 0 injections): 104.3 pg/mL
- Accumulation of ascitic fluid (weight gain) ([10]; 3 daily injections): 7.02%
- Concentration in serum: IFNα ([10]; 3 daily injections): 160.0 pg/mL
- Concentration in serum: IL-1 ([10]; 3 daily injections): 55.6 pg/mL
- Concentration in serum: IL-2 ([10]; 3 daily injections): 22.3 pg/mL
- Concentration in serum: IL-6 ([10]; 3 daily injections): 91.0 pg/mL
- Concentration in serum: TNFα ([10]; 3 daily injections): 130.0 pg/mL
- Accumulation of ascitic fluid (weight gain) ([10]; 7 daily injections): 26.30%
- Concentration in serum: IFNα ([10]; 7 daily injections): 205. pg/mL
- Concentration in serum: IL-1 ([10]; 7 daily injections): 36.40 pg/mL
- Concentration in serum: IL-2 ([10]; 7 daily injections): 14.6 pg/mL
- Concentration in serum: IL-6 ([10]; 7 daily injections): 119. pg/mL
- Concentration in serum: TNFα ([10]; 7 daily injections): 157.0 pg/mL
- Mean survival time ([10]; mice inoculated with leukemia L1210 cells, daily injections till day 14 or death): 9.61 ± 0.18
- number of HL-60 cells per well ([11]; 24 hours incubation): 96 ± 8 × 10^4 cells
- number of HL-60 cells per well ([11]; 48 hours incubation): 152 ± 8 × 10^4 cells
- number of HL-60 cells per well ([11]; 72 hours incubation): 312 ± 21 × 10^4 cells
- number of HL-60 cells per well ([11]; 96 hours incubation): 527 ± 18 × 10^4 cells
